Results taken from patent US9283277B2, “Methods and compositions for the treatment of obesity” (Children's Medical Center Corporation, priority 2008, dated 2016).

Experiments:
[1] = test system: PERK (Thr980) phosphorylation; experiment: Hypothalamic PERK (Thr980) phosphorylation in ob/ob mice; type: in vivo; conditions: vs vehicle
Method: Nine-week old lean wt and ob/ob mice were orally treated with either PBA (1 g/kg/day) or vehicle (VEH) for 26 days and PERK (Thr980) phosphorylation is examined in the hypothalamus extracts with direct immunoblotting. (B) Ten week-old wt lean and ob/ob mice were intraperitoneally injected with leptin (0.1 mg/kg) after six-hour starvation. Hypothalami were removed 30 minutes after the injections, and pStat3^Tyr705 and total Stat3 levels were examined. (C) Nine-week old lean wt and ob/ob mice were orally treated with PBA (1 g/kg/day) for 10 days. Following the pretreatment period, leptin-deficient ob/ob mice were either administered with VEH or with different doses of leptin through the intraperitoneal route. […]
(a) Hypothalamic PERK phosphorylation (Thr980) after 21 days of vehicle or TUDCA (150 mg/kg/day) treatment. […] Error bars are ±S.E.M., P values are determined by Student's t-test. […]
If the postulate that reduction of ER stress in the hypothalamus increases leptin sensitivity is true, chemical chaperones other than PBA should also create the same effect and sensitize the obese mice to leptin. […] For this purpose we treated ob/ob mice either with vehicle or TUDCA (150 mg/kg/day) for a period of 21 days and analyzed the hypothalamic PERK phosphorylation. […]

ob/ob mice = experiment: TUDCA pretreatment and leptin in ob/ob mice (bodyweight, metabolic cage, DEXA); type: in vivo
Method: (a) Hypothalamic PERK phosphorylation (Thr980) after 21 days of vehicle or TUDCA (150 mg/kg/day) treatment. Following a five-day pretreatment with TUDCA (150 mg/kg/day) or vehicle, nine-ten week old ob/ob mice were treated either with leptin (1 mg/kg/day) or vehicle. (b) Body weight (g), (c) % decrease in body weight, (d) daily food intake of the ob/ob mice during 18 days of treatment period with the indicated regimens. (e) Blood glucose (mg/dl) levels at the 18th day of treatment. Metabolic cage studies were performed; (f) CO2 production (ml/kg/hr), (g) O2 consumption (ml/kg/hr), (h) Respiratory exchange ratio (VCO2/VO2), (i) X-axis ambulatory activity, (j) Heat generation (kcal/hr). Dexa scan analysis of (k) total fat amount (g), (l) fat % and (m) lean body mass (g). C57BL/6 male wt mice were kept on HFD feeding for 32 weeks and following a five day acclimation period were pretreated with TUDCA (150 mg/kg/day) for five days. At the end of pretreatment period intraperitoneal vehicle and leptin (1 mg/kg/day) treatments were started. (n) Body weight (g), (o) % decrease in bodyweight of the HFD-fed mice during the 16-day treatment. (n=6 for VEH, n=7 for Lep, n=7 for TUD, n=8 for TUD+Lep group). Error bars are ±S.E.M., P values are determined by Student's t-test. (*p<0.05, **p<0.01, ***p<0.001)
If the postulate that reduction of ER stress in the hypothalamus increases leptin sensitivity is true, chemical chaperones other than PBA should also create the same effect and sensitize the obese mice to leptin. TUDCA is a hydrophilic bile acid, which has a completely different structure than PBA, but has chemical chaperone activity in common^25. First, we investigated whether TUDCA can reduce ER stress in the hypothalamus of the ob/ob mice. For this purpose we treated ob/ob mice either with vehicle or TUDCA (150 mg/kg/day) for a period of 21 days and analyzed the hypothalamic PERK phosphorylation. […] To address this question we first pretreated the ob/ob mice with TUDCA (150 mg/kg/day) for 5 days and subsequently initiated leptin (1 mg/kg) treatment. […] Body weight of the ob/ob mice decreased further with leptin and TUDCA co-treatment and reached to 34.39±1.30 g from 50.55±1.14 g (Lep vs. TUD+Lep, p<0.001). […] Furthermore, to investigate the metabolic homeostasis in more detail, we placed the mice in metabolic cages. […] Heat generation was the same between the groups (FIG. 5j). Next, we analyzed the whole body fat composition by DEXA scan. […] Finally, analysis of lean mass has shown that none of the treatments lead to a significant change in this parameter ([…]). We additionally investigated the effect of TUDCA and leptin co-treatment on C57BL/6 wt-lean mice.
We next tested the efficacy of TUDCA as a leptin sensitizer in the HFD-induced obesity model. In this experiment we used 35 weeks old and C57BL/6 wt mice, which were kept on HFD-feeding for 32 weeks. We divided the mice into two groups for TUDCA and TUDCA-leptin co-treatment. Body weight of the mice in this cohort was between 35-52 g. We specifically chose the mice with the highest bodyweight for TUDCA and leptin co-treatment group to investigate whether leptin will become effective in these severely obese mice when administered along with the TUDCA. The initial body weight of the TUDCA group was 38.33±1.16 (g) and TUDCA+leptin group was 48.46±1.82 (g) (FIG. 5n). […]

Molecule: O=C(O)CCCc1ccccc1 [PBA, 4-phenyl butyric acid]
- PERK (Thr980) phosphorylation in hypothalamus ([1]; PBA 1 g/kg/day orally, 26 days): significantly reduced

Molecule: C[C@H](CCC(=O)NCCS(=O)(=O)O)[C@H]1CC[C@H]2[C@@H]3[C@@H](O)C[C@@H]4C[C@H](O)CC[C@]4(C)[C@H]3CC[C@]12C [TUDCA, tauroursodeoxycholic acid]
- hypothalamic PERK phosphorylation (PERK activity) ([1]; TUDCA 150 mg/kg/day, 21 days): down regulated
- blood glucose levels (ob/ob mice; 18th day of treatment, TUDCA 150 mg/kg/day, leptin 1 mg/kg/day): lowered
- body weight (ob/ob mice; TUDCA 150 mg/kg/day alone): did not decrease

Molecule: leptin: adipocyte-derived hormone that suppresses appetite
- initial body weight (ob/ob mice; before leptin 1 mg/kg, with or without TUDCA 150 mg/kg/day): 50.50 ± 0.55 g
- percent decrease from the initial body weight (ob/ob mice; leptin 1 mg/kg/day, 18 days, with or without TUDCA 150 mg/kg/day): 9.27±1.34%
- body weight after treatment (ob/ob mice; leptin 1 mg/kg/day, 18 days, with or without TUDCA 150 mg/kg/day (5 days pretreatment)): 43.75 ± 0.22 g
